Measured values as given in a melting point compilation (Tetko et al.; mined from patent text by program, amines drawn as free bases though some values may be those of a salt).

Structure (SMILES) | melting point
O=C(Cc1c2c(nn1-c1ccccc1)c(=O)[nH]c1ccccc12)N1CCN(Cc2ccccc2)CC1 | 283 to 285 °C
CCNC1=C(c2ccc(OC)cc2)C(=O)c2cc(OC)ccc21 | 88 to 90 °C
CCCn1nc2c(N)nc3ccccc3c2c1CC(C)(C)C(N)=O | 224 to 225 °C
CC(C)Nc1cccnc1N1CCN(C(=O)c2ccc(C(=O)Nc3nncs3)cn2)CC1 | 260 to 262 °C
c1ccc2c(c1)Cc1sccc1CN2 | 86 °C
Cc1cc(C(O)CS(C)(=O)=O)cc(C)c1N(C)C (centres undefined) | 133 to 134 °C
CCc1cccc(C)c1CNc1cc(C(=O)N2CCOCC2)cc2c1nc(C)n2C | 229 to 231 °C
COc1c(C(C)C)cc(S(N)(=O)=O)c(C)c1C(=O)NCC1CCCN1CC1CC1 (centres undefined) | 125 °C
CCCC1(C(C)(C)C(=O)Oc2ccc(N)cc2)C(=O)NC(=O)NC1=O | 212 to 215 °C
NNc1ccc(S(=O)(=O)c2ccc(NN)cc2)cc1 | 179 to 183 °C
CCn1c(=O)c2[nH]c(-c3ccc(S(=O)(=O)N4CCN(C)CC4)cc3)nc2n(CC)c1=O | 305 to 307 °C
O=C1c2c(oc3ccccc23)-c2ccc(O)c3cccc1c23 | 374 °C
COc1cc(Br)c(OC)c2c1C=C([N+](=O)[O-])CC2 | 121 to 123 °C
NS(=O)(=O)c1ccccc1S | 113 to 140 °C
Cn1cnnc1Sc1nc(-c2ccc(Cl)cc2)c(CCC(=O)O)o1 | 186 to 188 °C
c1ccc(Nc2nnn[nH]2)cc1 | 208 to 209 °C
CN(C)c1ccc(N2CCN(Cc3c[nH]c4ncccc34)CC2)cc1 | 199 to 201 °C
COc1cnc(CSc2nc3cc(OC(F)(F)C(F)F)ccc3[nH]2)c(C)c1OC | 127 to 128 °C
COc1ccc2[nH]cc(C3CCC4(CC3)OCCO4)c2c1 | 153 to 155 °C
CC(C)(O)c1cccc2ccccc12 | 81 to 86 °C
CC1=C(C(=O)N(C)Cc2ccc(Cl)cc2Cl)SC2=NCCN21 | 55 to 60 °C
CCOC(=O)c1cc(COc2cc3ncnc(Nc4ccc(Cl)cc4F)c3cc2OC)ccn1 | 212 to 214 °C
Oc1ccc2c(c1)nnc1ccccc12 | 274 to 277 °C

Structure (SMILES) | melting point
N#Cc1cc(F)cc(-c2ccc3c(c2)C(C2CC2)(C2CC2)OC(=O)N3)c1 | 250 to 252 °C
Nc1cccc2nc(=O)cccc12 | 175 to 178 °C
CCCC(=O)NS(=O)(=O)c1ccc(NC(=O)N2CCc3c(OC)ccc(N4CCN(C)CC4)c3C2)cc1 | 185 to 190 °C
Cc1cc(C(C)c2ccccc2)c(O)c(-n2nc3ccc(Cl)cc3n2)c1 (centres undefined) | 113 to 115 °C
CC(C)CNC(=O)[C@H](C)C[C@H](O)[C@H](CC1CCCCC1)NC(=O)OC(C)(C)C | 125 to 126 °C
O=c1cc(O)nc2cc(C(c3c(F)ccc(F)c3F)S(=O)(=O)CCC(F)(F)F)c(Cl)cn12 (centres undefined) | 264 °C
CCOc1ccc2cccnc2c1[N+](=O)[O-] | 161 to 164 °C
COC12CC(CN3CCC(c4c[nH]c5ccccc45)CC3)CN(C)C1Cc1c[nH]c3cccc2c13 (centres undefined) | 222 to 227 °C
CCOC(=O)CC(O)CP(=O)(OCC)OCC (centres undefined) | 33 to 35 °C
ON=C1C2CCC1CN(Cc1ccccc1)C2 | 92 to 95 °C
O=C(O)CCc1ccc(NS(=O)(=O)c2ccc(Cl)cc2)cn1 | 144 to 146 °C
CN1CCN(c2cccc(Nc3cc(NC(=O)Nc4c(Cl)cccc4Cl)ncn3)c2)CC1 | 209 to 212 °C
CCCCCCCCCCN(O)C(=O)NCC(=O)OCC | 70 to 71 °C
COc1ccc(Nc2ccc(F)cc2)cc1 | 46 to 48 °C
Cc1cc(CC(Cc2cc(C)c(O)c(C(C)(C)C)c2)(C(=O)OC2CC(C)(C)N(C)C(C)(C)C2)C(=O)OC2CC(C)(C)N(C)C(C)(C)C2)cc(C(C)(C)C)c1O | 150 °C
C=CCSc1ccc(Oc2ccccc2)nn1 | 71 to 73 °C
CC(=O)NNc1c(C)cnc2c(NC(=O)c3c(Cl)cccc3Cl)cccc12 | 249 to 254 °C
Cn1ccc2cc(N3Cc4ccc(OC(F)F)cc4C3=O)ccc21 | 180 to 182 °C
Cc1c(C(=O)O)cnn1-c1nc(-c2ccccc2C(F)(F)F)cs1 | 216 °C
CNS(=O)(=O)c1cc2c(cc1CC(=O)O)CCCC2 | 153 to 155 °C
Cc1ccc2c3c(ccc2n1)OCC(CNCC1CCc2[nH]c4ccc(Cl)cc4c2C1)O3 (centres undefined) | 104 to 105 °C
O=c1[nH]c(=O)n(CCCCN2CC=C(c3ccc(Cl)cc3)CC2)c2ccccc12 | 162 to 166 °C
N#Cc1nn(-c2c(Cl)cc(C(F)(F)F)cc2Cl)c(N)c1C(=O)CBr | 190 to 192 °C

Structure (SMILES) | melting point
CCOC(=O)Cc1ccc(Nc2ccnc(Nc3cc(OC)c(OC)c(OC)c3)n2)cc1 | 143 to 144 °C
Cc1cc(Cl)c2cc(O)ccc2n1 | 233 °C
CN1C(=O)CC[C@]2(C)c3ccc(-c4ccc5c(c4)CCC5=O)cc3CC[C@@H]12 | 175 to 178 °C
Cc1ccc(NC(=O)c2ccc([N+](=O)[O-])cc2)cc1 | 140 to 146 °C
O=C(Nc1c(F)cccc1F)c1ccc(-n2nc(C(F)(F)F)cc2C2CC2)nc1 | 192 to 194 °C
O=c1c2ccc(O)cc2oc2c(O)c(O)ccc12 | > 300 °C
CC(C)(OCc1cc2cc(Cl)ccc2n1S(=O)(=O)c1ccc2ncsc2c1)C(=O)O | 74 °C
O=[N+]([O-])c1cccc2c1C[C@H]1CSC(=S)N1C2 | 203 °C
COC(=O)c1cccc2c1nc(/C=C/c1ccc(OC)c(OC)c1)n2C | 187 to 189 °C
COC(=O)c1cccc(F)c1OC | 99 to 101 °C
COC(=O)c1cccc(C(=O)Nc2ccc(-n3nc(C(F)(F)F)cc3C(F)(F)F)cc2)c1 | 174 to 175 °C
CC1CCCN(C(=O)C2Cc3ccc(F)cc3N2c2ccc(=O)n(C)n2)C1 (centres undefined) | 219 to 222 °C
O=P(Oc1ccccc1)(Oc1ccccc1)C1(N2CCOCC2)CCCCC1 | 103 to 106 °C
CCN(CC)S(=O)(=O)c1ccc(Oc2ccc([N+](=O)[O-])cc2C#N)cc1 | 163 to 164 °C
Cc1cc(C)c2c(c1)C(NC(=O)c1conc1C)CCC2 (centres undefined) | 57 to 58 °C
O=C1CC(O)c2ccc(F)cc21 (centres undefined) | 73 to 76 °C
COC(=O)c1ccc(/C=C/Cc2cc3c(cc2C)CCC(C)(C)CC3)cc1 | 59 to 60 °C
Cc1cc(CBr)c(CBr)cc1C | 116 to 120 °C
O=C1C(O)=C(C2CCC(c3ccc(Cl)cc3)CC2)C(=O)c2ccccc21 (centres undefined) | 216 to 219 °C
O=C(O)CCn1cccc1Cn1ccnc1 | 127 to 128 °C
CC(=O)Nc1ccc(S(=O)(=O)Nc2nncs2)cc1 | 214 to 215 °C
O=c1[nH]c2cc(Cl)c(Cl)cc2[n+]([O-])c1-c1ccc(O)cc1 | 276 to 278 °C

Results, then the compound that gave them:

melting point | Structure (SMILES)
112 °C | CC(C)(C)OC(=O)NCC(=O)N1[C@@H](C(=O)OC(C)(C)C)CC[C@H]1c1ccccc1 (racemic)
52 to 54 °C | c1ccc(NCCCCCCCNc2ccccc2)cc1
266 to 267 °C | O=C(O)c1[nH]c2cc(Cl)cc(Cl)c2c1N(Cc1ccccc1)C(=O)c1ccccc1
> 200 °C | CCOC(=O)c1c(CCc2ccc(OC)cc2)nc2c(c1-c1ccc(C(=O)NCc3ccccn3)cc1)C(=O)N1CCC[C@H]1C2
144 to 146 °C | CCCCCCCCCCOc1ccc2c(c1CCC)OC(CCC(=O)O)(CCC(=O)O)CC2=O
192 to 193 °C | CCn1cc(-c2c(-c3ccccc3)nn3ccncc23)ccc1=O
86 to 100 °C | O=C(NCCCCC(NC(=O)OCc1ccccc1)C(=O)NC1OC(C(=O)O)CC1O)OCc1ccccc1 (centres undefined)
68 to 73 °C | CCCCC1=NC2(CCCC2)C(=O)N1Cc1ccc(-c2ccccc2S(=O)(=O)Nc2noc(C)c2C)c(COCCF)c1
174 to 175 °C | Cc1ccc(COc2cccnc2NC(=N)Nc2ccc(Cl)cc2)cc1
206 to 208 °C | O=C(NC(c1ccccc1)c1cc2ccncc2[nH]1)c1ccccc1 (centres undefined)
181 to 185 °C | CCCCCCOc1ccc(C=CC(C)=CC=CC(=O)O)cc1
287 to 288 °C | COC(=O)c1ccc(N2C(=O)C(O)=C(C(=O)c3ccc(C)cc3)C2c2ccc(C(C)(C)C)cc2)nc1 (centres undefined)
237 to 239 °C | NS(=O)(=O)c1cc(C(=O)O)c(NCc2ccccc2)cc1Oc1ccccc1
196 to 199 °C | COc1cccc(Cc2cc3cccc(-c4cccc(C(=O)Nc5ccc(F)nc5)c4)c3o2)c1
117 to 118 °C | COc1ccc(CC(=O)O)cc1OCCCc1cn(-c2ccc(C(F)(F)F)cn2)nc1C1CCCCC1
101 to 103 °C | Cc1cc(O)c(C)c(C)c1OCc1ccccc1

melting point | Structure (SMILES)
177 to 179 °C | Cc1cc(C(=O)NCc2cccc([N+](=O)[O-])c2)c(OCC(=O)O)cc1F
188 °C | O=C(O)CN(CC(=O)O)c1cccc(N(CC(=O)O)CC(=O)O)c1
139 to 141 °C | CCCCC(Oc1ccccc1)C(=O)OC1CC(O)C=C2C=CC(C)C(CCC3CC(O)CC(=O)O3)C21 (mixture of isomers)
108 to 110 °C | O=C(O)[C@H](Cc1ccc(O)cc1)NS(=O)(=O)c1ccc(N2CCC(c3ccccc3)CC2)cc1
97 °C | CCCn1c2ccccc2c2cc(C(=O)CC(C)=O)ccc21
145 to 146 °C | c1ccc(COc2ccc(Nc3ccn(-c4ccccc4)n3)cc2)cc1
157 to 159 °C | Cc1nnc(SCC2=C(C(=O)OC(c3ccccc3)c3ccccc3)N3C(=O)C(N)C3SC2)s1 (centres undefined)
101 °C | COc1cc(C(=O)c2ccc(C(F)(F)F)cc2)ccc1OCc1ccccc1
163 to 164 °C | COc1ccccc1C=C(C=O)C(C=O)=Cc1ccccc1OC
149 to 150 °C | N=C(NC(=O)OCc1ccccc1)NC(=O)OCc1ccccc1
95.5 to 95.7 °C | O=c1cc(OCc2cccc(Cl)c2)ccn1Cc1ccccc1
81 to 85 °C | CC(CCNc1cccc(-c2ccnc3c(C(=O)c4cccs4)cnn23)c1)CC(C)(C)C (centres undefined)
54 to 55 °C | O=Cc1ccc(CC(=O)OCc2ccccc2)cc1
186 to 190 °C | CC(=O)N[C@@H](C)c1ccc(C(=O)O)cc1
177 °C | O=C(NCCCCN1CCC(c2c[nH]c3ccccc23)CC1)c1ccc(-c2ccc(C(F)(F)F)cc2)c(CO)c1
